Each molecule was assayed on mD4-VV surrogate virus (assay: microbe, parasite or virus in culture). Conditions: not given.
Format: cell-based, mD4/vaccinia hybrid virus

How did the “% @ 25 uM (mD4)” value turn out when `CCC(C(=O)Nc1sccc1C(=O)OC)c1ccccc1` (centres unmarked) [Compound 112, Methyl 2-(2-phenylbutanamido)thiophene-3-carboxylate] was run?
Its value is 59% @ 25 uM.

`CCC(C(=O)Nc1sc(C(N)=O)c(C)c1C(=O)OC)c1cccc(OC)c1` (centres unmarked) [Compound 96, Methyl 2-(2-(3-methoxyphenyl)butanamido)-5-carbamoyl-4-methylthiophene-3-carboxylate] was tested. Which “% @ 25 uM (mD4)” value did it give?
The value was 56% @ 25 uM.

How did the “% @ 25 uM (mD4)” value turn out when `CCOC(=O)c1nnsc1NC(=O)C(CC)c1ccccc1` (centres unmarked) [Compound 106, 5-(2-Phenyl-butyrylamino)-[1,2,3]thiadiazole-4-carboxylic acid ethyl ester] was run?
The value was 40% @ 25 uM.

`COC(=O)c1c(NC(=O)N2CCN(c3ccccn3)CC2)sc(C(N)=O)c1C` [Compound 116, Methyl 2-(4-(pyridin-2-yl)piperazine-1-carboxamido)-5-carbamoyl-4-methylthiophene-3-carboxylate] was tested. Which “% @ 25 uM (mD4)” value did it give?
The value was 30% @ 25 uM.

For `O=C(NCc1ccccc1)c1nnsc1NC(=O)N1CCN(c2ccccc2)CC1` [Compound 123, 4-Phenyl-piperazine-1-carboxylic acid (4-benzylcarbamoyl-[1,2,3]thiadiazol-5-yl)-amide], which “% @ 25 uM (mD4)” value is on record?
The value was 44% @ 25 uM.

Same assay, conditions: Hybrid virus, BSC-1, read-out: mD4 EC50

For `CCC(C(=O)Nc1snnc1-c1ccc(F)cc1)c1ccccc1` (centres unmarked) [Compound 154, N-[4-(4-Fluoro-phenyl)-[1,2,3]thiadiazol-5-yl]-2-phenyl-butyramide], which EC50 is on record?
Its EC50 is 32 µM.

For `CCC(C(=O)Nc1snnc1C(=O)NCc1ccc(Cl)cc1)c1ccccc1` (centres unmarked) [Compound 134, 5-(2-Phenyl-butyrylamino)-[1,2,3]thiadiazole-4-carboxylic acid 4-chloro-benzylamide], which EC50 is on record?
Its EC50 is 11.5 µM.

`CCOC(=O)c1ncsc1NC(=O)N1CCN(c2ccccn2)CC1` [Compound 127, Ethyl 5-(4-(pyridin-2-yl)piperazine-1-carboxamido)thiazole-4-carboxylate] was tested. Which EC50 did it give?
Its EC50 is 29.5 µM.

With `O=C(Nc1snnc1-c1ccc(C(F)(F)F)cc1)N1CCN(c2ccccn2)CC1` [Compound 118, 4-Pyridin-2-yl-piperazine-1-carboxylic acid [4-(4-trifluoromethyl-phenyl)-[1,2,3]thiadiazol-5-yl]-amide] as the molecule, how does the EC50 read?
The EC50 was 4 µM.

Which EC50 does the source give for `CCC(C(=O)Nc1scnc1C(=O)NCc1ccccc1)c1ccccc1` (centres unmarked) [Compound 162, 5-(2-Phenylbutanamido)-N-benzylthiazole-4-carboxamide] here?
Its EC50 is 18.1 µM.

With `O=C(NCc1ccccc1)c1ccsc1NC(=O)N1CCN(c2ccccn2)CC1` [Compound 130, N-(3-(Benzylcarbamoyl)thiophen-2-yl)-4-(pyridin-2-yl)piperazine-1-carboxamide] as the molecule, how does the EC50 read?
Its EC50 is 32.8 µM.

How did the EC50 turn out when `CCC(C(=O)Nc1sc(C(N)=O)c(C)c1C(=O)OC)c1ccccc1F` (centres unmarked) [Compound 189, Methyl 5-carbamoyl-2-(2-(2-fluorophenyl)butanamido)-4-methylthiophene-3-carboxylate] was run?
Its EC50 is 15.2 µM.

With `CCC(C(=O)Nc1sc(C(N)=O)c(C)c1C(=O)NCc1ccc(Cl)cc1)c1ccccc1` (centres unmarked) [Compound 115, 2-(2-Phenylbutanamido)-N3-(4-chlorobenzyl)-4-methylthiophene-3,5-dicarboxamide] as the molecule, how does the EC50 read?
The EC50 was 11 µM.

How did the EC50 turn out when `CCC(C(=O)Nc1sc(C(N)=O)c(C)c1C(=O)OC)c1ccc2c(c1)OCO2` (centres unmarked) [Compound 193, Methyl 2-(2-(benzo[d][1,3]dioxol-5-yl)butanamido)-5-carbamoyl-4-methylthiophene-3-carboxylate] was run?
The EC50 was over 50 µM.

`CCC(C(=O)Nc1sc(C(=O)NCCc2cccnc2)c(C)c1C(=O)OC)c1ccc(F)cc1` (centres unmarked) [Compound 187, methyl 2-(2-(4-fluorophenyl)butanamido)-4-methyl-5-((2-(pyridin-3-yl)ethyl)carbamoyl)thiophene-3-carboxylate] was tested. Which EC50 did it give?
Its EC50 is 13.8 µM.

For `CCC(C(=O)Nc1sc(C(N)=O)c(C)c1C(=O)OC)c1ccccc1OC` (centres unmarked) [Compound 95, Methyl 2-(2-(2-methoxyphenyl)butanamido)-5-carbamoyl-4-methylthiophene-3-carboxylate], which EC50 is on record?
The EC50 was 21.2 µM.

For `CCC(C(=O)Nc1sc(C(N)=O)c(C)c1C(=O)OC)c1ccc(Cl)cc1` (centres unmarked) [Compound 191, Methyl 5-carbamoyl-2-(2-(4-chlorophenyl)butanamido)-4-methylthiophene-3-carboxylate], which EC50 is on record?
Its EC50 is 11.4 µM.

Which EC50 does the source give for `O=C(Nc1snnc1C(=O)NCc1ccc(Cl)cc1)Oc1ccccc1` [Compound 132, [4-(4-Chloro-benzylcarbamoyl)-[1,2,3]thiadiazol-5-yl]-carbamic acid phenyl ester] here?
The EC50 was 16.4 µM.

`CCC(C(=O)Nc1sc(C(N)=O)c(C)c1C(=O)OC)c1ccc(C#N)cc1` (centres unmarked) [Compound 197, Methyl 2-(2-(4-cyanophenyl)butanamido)-5-carbamoyl-4-methylthiophene-3-carboxylate] was tested. Which EC50 did it give?
The EC50 was 42 µM.

With `CCC(C(=O)Nc1snnc1-c1ccccc1F)c1ccccc1` (centres unmarked) [Compound 153, N-[4-(2-Fluoro-phenyl)-[1,2,3]thiadiazol-5-yl]-2-phenyl-butyramide] as the molecule, how does the EC50 read?
Its EC50 is 10.2 µM.

With `CCC(C(=O)NC(=O)c1sc(N)c(C(=O)OC)c1C)c1ccc(F)cc1` (centres unmarked) [Compound 174, Methyl 5-(2-(4-fluorophenyl)butanoylcarbamoyl)-2-amino-4-methylthiophene-3-carboxylate] as the molecule, how does the EC50 read?
The EC50 was 20.5 µM.

How did the EC50 turn out when `CCC(C(=O)Nc1sc(C(N)=O)c(C)c1C(=O)OC)c1cccc(F)c1` (centres unmarked) [Compound 98, Methyl 2-(2-(3-fluorophenyl)butanamido)-5-carbamoyl-4-methylthiophene-3-carboxylate] was run?
Its EC50 is 18 µM.

Which EC50 does the source give for `CCC(C(=O)Nc1sc(C(N)=O)c(C)c1C(=O)OC)c1ccc(C)cc1` (centres unmarked) [Compound 188, Methyl 5-carbamoyl-4-methyl-2-(2-(p-tolyl)butanamido)thiophene-3-carboxylate] here?
Its EC50 is 64.1 µM.

How did the EC50 turn out when `CCC(C(=O)Nc1sc(C(=O)NCCCN)c(C)c1C(=O)OC)c1ccc(F)cc1` (centres unmarked) [Compound 203, Methyl 5-(3-aminopropylcarbamoyl)-2-(2-(4-fluorophenyl)butanamido)-4-methylthiophene-3-carboxylate] was run?
The EC50 was 20 µM.

For `CCC(C(=O)Nc1sc(C(=O)OC(C)(C)C)c(C)c1C(=O)OC)c1cc(F)cc(F)c1` (centres unmarked) [Compound 194, 2-tert-butyl 4-methyl 5-(2-(3,5-difluorophenyl)butanamido)-3-methylthiophene-2,4-dicarboxylate], which EC50 is on record?
The EC50 was over 50 µM.

With `Cc1ccc(CNC(=O)c2nnsc2NC(=O)N2CCN(c3ccccn3)CC2)cc1` [Compound 124, 4-Pyridin-2-yl-piperazine-1-carboxylic acid [4-(4-methyl-benzylcarbamoyl)-[1,2,3]thiadiazol-5-yl]-amide] as the molecule, how does the EC50 read?
Its EC50 is 14.5 µM.

`CCC(C(=O)Nc1sc(C(=O)NCCCNC(=O)OC(C)(C)C)c(C)c1C(=O)OC)c1ccc(F)cc1` (centres unmarked) [Compound 202, Methyl 5-((3-((tert-butoxycarbonyl)amino)propyl)carbamoyl)-2-(2-(4-fluorophenyl)butanamido)-4-methylthiophene-3-carboxylate] was tested. Which EC50 did it give?
The EC50 was over 50 µM.

How did the EC50 turn out when `CCC(C(=O)Nc1sc(C(=O)OC(C)(C)C)c(C)c1C(=O)OC)c1ccc2c(c1)OCO2` (centres unmarked) [Compound 192, 2-tert-butyl 4-methyl 5-(2-(benzo[d][1,3]dioxol-5-yl)butanamido)-3-methylthiophene-2,4-dicarboxylate] was run?
The EC50 was over 50 µM.

With `Cc1c(C(N)=O)sc(NC(=O)N2CCN(c3ccccn3)CC2)c1C(=O)NCc1ccccc1` [Compound 131, 2-(4-(pyridin-2-yl)piperazine-1-carboxamido)-N3-benzyl-4-methylthiophene-3,5-dicarboxamide] as the molecule, how does the EC50 read?
Its EC50 is 31.8 µM.

From US20250295652A1, “Inhibitors of Molluscum Contagiosum Infection and Methods Using the Same” (priority 2021, published 2025)
